Data on 5 compounds can be found in patent US4775681A, “Method of treating fungal infections with trans-6-[2-substitutedpyrrol-1-yl)alkyl]-4-hydroxypyran-2-ones” (Warner-Lambert Company, priority 1987, dated 1988).

Experiment in all cases: Antifungal susceptibility, microbroth dilution MIC
Holding throughout (format): cell-based

One assay deals with Candida albicans. As for the experimental part: (§1) The antimicrobial susceptibilities of eleven strains of Candida albicans, two strains of Candida tropicans, and one strain each of Torulopsis glabrata and Cryptococcus neoformans to several representative compounds of the present invention were tested. For comparison, the known antifungal agents amphotericin-B and ketoconazole were also tested. Minimal inhibitory concentrations (MIC's) for each compound were determined using the microbroth dilution technique described by S. Shadomy, et al, "Laboratory Studies with Antifungal Agents: Susceptibility Tests and Bioassays," pp. 991-999 in Manual Clin. Microbiol., 4th Ed., Amer. Soc. For Microbiol., Washington, D.C., 1985. The compounds tested are as follows and the results of the testing appear in the following Table.

Another assay relates to Candida tropicans. As for the experimental part: as §1
Another assay relates to Cryptococcus neoformans. Conditions: strain 1678, 24 hours. The protocol: as §1
The subject of another assay is Torulopsis glabrata. Conditions: Nakaseomyces glabratus; strain 1581; 24 hours. The protocol:
as §1

Where [1] appears, read: ATCC10231, 24 h, strain ATCC 10231.
The mark [2] stands for this setting: ATCC13803, strain ATCC 13803, 24 hours.

In brackets after ≈: the same amount, converted by molar mass. Structures can show the parent of a compound that is named as a salt.

For orientation: MIC means the smallest concentration in the dilution series that meets the test's criterion for growth inhibition. Low readings indicate greater potency, high ones weaker potency.

Turning to `CC(C)c1c(Br)c(Br)c(-c2ccc(F)cc2)n1CC[C@@H](O)C[C@@H](O)CC(=O)O` (relative stereo) [Compound 1, 3,4-Dibromo-2-(4-fluorophenyl)-β,δ-dihydroxy-5-(1-methylethyl)-1H-pyrrole-1-heptanoic acid, monosodium salt], the MIC against Candida albicans (24 h, strain 1570) came out at 16 µg/mL; with Candida albicans (24 h, strain 1571), 32 µg/mL; against Candida albicans (24 h, strain 1574), 16 µg/mL; in the assay with Candida albicans (24 h, strain 1575), 32 µg/mL; in the assay with Candida albicans (24 h, strain 1576), 15 µg/mL; against Candida albicans (24 h, strain 1577), 16 µg/mL. Also, the MIC against Candida albicans (24 h, strain 1578) is 16 µg/mL; in the assay with Candida albicans (24 h, strain 1579) it was 16 µg/mL; in the assay on Candida albicans (24 h, strain B4b), 16 µg/mL; in the assay with Candida albicans (24 h, strain M752), 32 µg/mL; against Candida albicans (setting [1]), 16 µg/mL; with Candida tropicans (setting [2]) it was 64 µg/mL. Further, the MIC in the assay with Candida tropicans (strain 1573, 24 hours) came out at 16 µg/mL; against Cryptococcus neoformans, 128 µg/mL; in the assay with Torulopsis glabrata, 128 µg/mL.
`CCOC(=O)c1c(Br)c(-c2ccc(F)cc2)n(CC[C@H]2C[C@H](O)CC(=O)O2)c1C(F)(F)F` (relative stereo) [Compound 2, trans-4-Bromo-5-(4-fluorophenyl)-1[2-(tetrahydro-4-hydroxy-6-oxo-2H-pyran-2-yl)-ethyl]-2-(trifluoromethyl)-1H-pyrrole-3-carboxylic acid, ethyl ester]: the MIC is 32 µg/mL (≈ 61.3 µM) against Candida albicans (24 h, strain 1570); 64 µg/mL (≈ 123 µM) against Candida albicans (24 h, strain 1571); 32 µg/mL (≈ 61.3 µM) against Candida albicans (24 h, strain 1574); 32 µg/mL (≈ 61.3 µM) with Candida albicans (24 h, strain 1575); 32 µg/mL (≈ 61.3 µM) against Candida albicans (24 h, strain 1576); 32 µg/mL (≈ 61.3 µM) against Candida albicans (24 h, strain 1577). The MIC in the assay on Candida albicans (24 h, strain 1578) turned out to be 32 µg/mL (≈ 61.3 µM); against Candida albicans (24 h, strain 1579), 32 µg/mL (≈ 61.3 µM); with Candida albicans (24 h, strain B4b), 16 µg/mL (≈ 30.6 µM); against Candida albicans (24 h, strain M752) it was 32 µg/mL (≈ 61.3 µM); against Candida albicans (setting [1]), 16 µg/mL (≈ 30.6 µM); in the assay on Candida tropicans (setting [2]) it was 64 µg/mL (≈ 123 µM). Also, the MIC was determined as 16 µg/mL (≈ 30.6 µM) in the assay on Candida tropicans (strain 1573, 24 hours); 64 µg/mL (≈ 123 µM) against Cryptococcus neoformans; 128 µg/mL (≈ 245 µM) against Torulopsis glabrata.
As for `CC(C)c1c(Cl)c(Cl)c(-c2ccc(F)cc2)n1CC[C@@H](O)C[C@@H](O)CC(=O)O` (relative stereo) [Compound 3, 3,4-Dichloro-2-(4-fluorophenyl)-β,δ-hydroxy-5-(1-methylethyl)-1H-pyrrole-1-heptanoic acid, monosodium salt], the MIC in the assay with Candida albicans (24 h, strain 1570) came to 64 µg/mL; against Candida albicans (24 h, strain 1571) it was 64 µg/mL; with Candida albicans (24 h, strain 1574), 64 µg/mL; with Candida albicans (24 h, strain 1575) it was 64 µg/mL; in the assay on Candida albicans (24 h, strain 1576), 64 µg/mL; against Candida albicans (24 h, strain 1577), 32 µg/mL. In addition, the MIC against Candida albicans (24 h, strain 1578) was 64 µg/mL; in the assay with Candida albicans (24 h, strain 1579) it was 64 µg/mL; in the assay with Candida albicans (24 h, strain B4b), 32 µg/mL; in the assay on Candida albicans (24 h, strain M752), 64 µg/mL; against Candida albicans (setting [1]), 32 µg/mL; against Candida tropicans (setting [2]), 128 µg/mL. For the same compound, the MIC against Candida tropicans (strain 1573, 24 hours) came to 32 µg/mL; against Cryptococcus neoformans it was 128 µg/mL; in the assay on Torulopsis glabrata it was 128 µg/mL.
For the compound `C[C@@H]1[C@H](O)[C@@H](C)/C=C/C=C/C=C/C=C/C=C/C=C/C=C/[C@H](O[C@@H]2O[C@H](C)[C@@H](O)[C@H](N)[C@@H]2O)C[C@@H]2O[C@](O)(C[C@@H](O)C[C@@H](O)[C@H](O)CC[C@@H](O)C[C@@H](O)CC(=O)O[C@H]1C)C[C@H](O)[C@H]2C(=O)O` [AMP-B, Amphotericin-B, reference compound], the MIC with Candida albicans (24 h, strain 1570) amounted to 8 µg/mL (≈ 8.66 µM); in the assay with Candida albicans (24 h, strain 1571) it was 2 µg/mL (≈ 2.16 µM); in the assay on Candida albicans (24 h, strain 1574) it was 4 µg/mL (≈ 4.33 µM); against Candida albicans (24 h, strain 1575), 8 µg/mL (≈ 8.66 µM); with Candida albicans (24 h, strain 1576), 4 µg/mL (≈ 4.33 µM); with Candida albicans (24 h, strain 1577), 8 µg/mL (≈ 8.66 µM). Also, the MIC against Candida albicans (24 h, strain 1578) is 8 µg/mL (≈ 8.66 µM); against Candida albicans (24 h, strain 1579) it was 4 µg/mL (≈ 4.33 µM); in the assay with Candida albicans (24 h, strain B4b), 4 µg/mL (≈ 4.33 µM); in the assay on Candida albicans (24 h, strain M752), 8 µg/mL (≈ 8.66 µM); with Candida albicans (setting [1]), 4 µg/mL (≈ 4.33 µM); against Candida tropicans (setting [2]) it was 8 µg/mL (≈ 8.66 µM). The MIC was 4 µg/mL (≈ 4.33 µM) in the assay with Candida tropicans (strain 1573, 24 hours); 4 µg/mL (≈ 4.33 µM) with Cryptococcus neoformans; 8 µg/mL (≈ 8.66 µM) with Torulopsis glabrata.
In the case of `CC(=O)N1CCN(c2ccc(OCC3COC(Cn4ccnc4)(c4ccc(Cl)cc4Cl)O3)cc2)CC1` (stereo not drawn) [Keto, Ketoconazole, reference compound], the MIC is 0.25 µg/mL (≈ 0.47 µM) against Candida albicans (24 h, strain 1570); 0.125 µg/mL (≈ 0.235 µM) against Candida albicans (24 h, strain 1571); 0.25 µg/mL (≈ 0.47 µM) against Candida albicans (24 h, strain 1574); 0.5 µg/mL (≈ 0.941 µM) in the assay with Candida albicans (24 h, strain 1575); > 0.5 µg/mL against Candida albicans (24 h, strain 1576); 0.125 µg/mL (≈ 0.235 µM) with Candida albicans (24 h, strain 1577). In addition, the MIC against Candida albicans (24 h, strain 1578) was 0.25 µg/mL (≈ 0.47 µM); against Candida albicans (24 h, strain 1579), 0.5 µg/mL (≈ 0.941 µM); against Candida albicans (24 h, strain B4b) it was 0.25 µg/mL (≈ 0.47 µM); with Candida albicans (24 h, strain M752), 0.25 µg/mL (≈ 0.47 µM); in the assay with Candida albicans (setting [1]) it was > 0.5 µg/mL; with Candida tropicans (setting [2]), 0.5 µg/mL (≈ 0.941 µM). The MIC in the assay on Candida tropicans (strain 1573, 24 hours) was > 0.5 µg/mL; in the assay with Cryptococcus neoformans, > 0.5 µg/mL; in the assay on Torulopsis glabrata it was > 0.5 µg/mL.
